# Assay results published in patent US6410792B1, “Amide derivatives and methods for using the same as selective neuropeptide Y receptor antagonists” (Bayer Corporation, priority 1997, dated 2002).
# Read-outs that look alike come from different tables or passages of the source.
# Assays:
# [1] = target: human Y4/PP1 receptor (Homo sapiens, UniProt P50391); assay: Human Y4/PP1 receptor binding assay ([125I]human PP, membrane protein)
# In short: (§1)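 Filtration binding with membrane protein and drug dilution, 2 h at room temperature with mixing, radioactivity counted by gamma or scintillation. Y2: 25 pM [125I]PYY in Krebs-Ringer bicarbonate pH 7.4 with 0.01% BSA, nonspecific by 1 μM NPY. Y4/PP1: 50 pM [125I]hPP in HEPES-buffered saline pH 7.4 with protease inhibitors and 0.3% BSA, nonspecific by 1 μM hPP.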
# [2] = target: T1, Y2 receptor (Homo sapiens, UniProt P49146); assay: Y2 receptor binding assay ([125I]PYY, membrane protein); details: [125I]PYY, membrane protein; read-out: hNPY2 IC50
# T1 sequence (P49146 1-381): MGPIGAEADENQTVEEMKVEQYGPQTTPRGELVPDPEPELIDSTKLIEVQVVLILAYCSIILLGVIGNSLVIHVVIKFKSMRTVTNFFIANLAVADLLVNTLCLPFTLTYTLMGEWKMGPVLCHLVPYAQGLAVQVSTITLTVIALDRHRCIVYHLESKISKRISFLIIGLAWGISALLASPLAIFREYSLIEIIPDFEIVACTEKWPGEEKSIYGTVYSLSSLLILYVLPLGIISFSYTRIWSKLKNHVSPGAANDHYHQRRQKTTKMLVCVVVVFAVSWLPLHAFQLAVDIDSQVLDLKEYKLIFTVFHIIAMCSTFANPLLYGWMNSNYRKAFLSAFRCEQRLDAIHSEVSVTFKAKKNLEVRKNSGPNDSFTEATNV
# In short: as §1
# [3] = target: T2, Human NPY1 receptor (Homo sapiens, UniProt P25929); assay: Human NPY1 receptor binding assay ([125I]PYY, SK-N-MC cells)
# T2 construct: host or cells: SK-N-MC cells
# T2 sequence (P25929 1-384): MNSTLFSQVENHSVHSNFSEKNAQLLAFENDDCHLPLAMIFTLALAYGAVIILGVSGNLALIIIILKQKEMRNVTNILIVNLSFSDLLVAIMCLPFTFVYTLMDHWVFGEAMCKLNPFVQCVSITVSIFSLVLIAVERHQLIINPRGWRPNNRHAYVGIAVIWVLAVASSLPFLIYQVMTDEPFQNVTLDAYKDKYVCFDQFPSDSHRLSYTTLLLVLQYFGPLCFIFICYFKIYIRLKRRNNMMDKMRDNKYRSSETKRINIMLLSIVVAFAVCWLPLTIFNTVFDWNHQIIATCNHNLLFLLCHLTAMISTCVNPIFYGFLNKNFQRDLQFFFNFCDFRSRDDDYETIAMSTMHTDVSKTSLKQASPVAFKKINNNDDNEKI
# In short: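 Confluent SK-N-MC cells preincubated 30 min at room temperature in serum-free DMEM/25 mM HEPES pH 7.3 with BSA, bacitracin and PMSF, then incubated 3 h at room temperature with compound and ~50 pM [125I]PYY. Nonspecific binding defined with 1 μM NPY; bound radioactivity counted after Triton X-100 lysis.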
# [4] = target: T3, Human NPY5 receptor (Homo sapiens, UniProt Q15761); assay: Human NPY5 receptor binding assay ([125I]PYY, membrane protein); details: [125I]PYY, read-out: hNPY5 IC50
# T3 sequence (Q15761 1-445): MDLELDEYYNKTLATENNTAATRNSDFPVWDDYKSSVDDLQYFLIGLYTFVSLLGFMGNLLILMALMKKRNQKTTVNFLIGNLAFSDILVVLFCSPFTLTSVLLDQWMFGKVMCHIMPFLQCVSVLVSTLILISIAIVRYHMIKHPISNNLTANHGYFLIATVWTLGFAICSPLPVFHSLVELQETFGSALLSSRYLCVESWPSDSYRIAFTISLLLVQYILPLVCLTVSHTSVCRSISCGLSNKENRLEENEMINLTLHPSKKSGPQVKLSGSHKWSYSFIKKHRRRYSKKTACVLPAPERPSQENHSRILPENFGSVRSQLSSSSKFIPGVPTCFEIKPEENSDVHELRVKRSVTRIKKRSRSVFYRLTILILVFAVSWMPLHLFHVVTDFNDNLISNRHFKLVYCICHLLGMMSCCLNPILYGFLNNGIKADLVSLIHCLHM
# In short: (§2)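 Membrane protein was incubated with 75-100 pM porcine [125I]PYY and test compound for 2 hours at room temperature with constant mixing in pH 7.4 Tris buffer containing NaCl, KCl, CaCl2, MgSO4, 0.1% BSA and bacitracin. Nonspecific binding was defined with 1 μM PYY. Bound radioactivity was counted after filtration.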
# [5] = target: T4, Rat NPY5 receptor (Rattus norvegicus, UniProt Q63634); assay: Rat NPY5 receptor binding assay ([125I]PYY, membrane protein)
# T4 sequence (Q63634 1-445): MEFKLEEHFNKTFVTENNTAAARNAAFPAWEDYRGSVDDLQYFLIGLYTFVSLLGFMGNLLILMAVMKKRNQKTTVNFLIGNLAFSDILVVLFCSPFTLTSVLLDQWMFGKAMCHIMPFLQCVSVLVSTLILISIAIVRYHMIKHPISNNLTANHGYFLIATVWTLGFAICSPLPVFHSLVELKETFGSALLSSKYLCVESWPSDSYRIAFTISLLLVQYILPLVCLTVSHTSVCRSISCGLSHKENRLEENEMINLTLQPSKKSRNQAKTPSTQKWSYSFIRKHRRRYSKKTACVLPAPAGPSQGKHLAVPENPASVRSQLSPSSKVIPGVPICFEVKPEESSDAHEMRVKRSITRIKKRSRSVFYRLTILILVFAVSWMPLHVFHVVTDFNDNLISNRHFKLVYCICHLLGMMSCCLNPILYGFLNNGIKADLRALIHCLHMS
# In short: as §2
# [6] = target: T4, Rat NPY5 receptor; assay: Rat NPY5 cyclase assay (in vitro functional assay, forskolin-stimulated adenylate cyclase, cAMP); format: cell-based; details: 20 min; 10 μM; percentage of forskolin-stimulated adenylate cyclase; read-out: rNPY5 % FSAC (10 μM)
# In short: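 Cells stably expressing rat NPY5 receptor, in serum-free DMEM with 10 mM HEPES pH 7.4 and 1 mM IBMX, received […] plus compound for 20 min at 37 °C. Reactions were stopped by boiling. cAMP was quantified by radioimmunoassay and expressed as % of forskolin-stimulated adenylate cyclase.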
# [7] = [125I]human PP, membrane protein, read-out: hNPY4 IC50
# [8] = [125I]PYY, SK-N-MC cells, read-out: hNPYI IC50
# [9] = [125I]PYY, read-out: rNPY5 IC50
# human Y4/PP1 receptor, sequence (P50391 whole entry): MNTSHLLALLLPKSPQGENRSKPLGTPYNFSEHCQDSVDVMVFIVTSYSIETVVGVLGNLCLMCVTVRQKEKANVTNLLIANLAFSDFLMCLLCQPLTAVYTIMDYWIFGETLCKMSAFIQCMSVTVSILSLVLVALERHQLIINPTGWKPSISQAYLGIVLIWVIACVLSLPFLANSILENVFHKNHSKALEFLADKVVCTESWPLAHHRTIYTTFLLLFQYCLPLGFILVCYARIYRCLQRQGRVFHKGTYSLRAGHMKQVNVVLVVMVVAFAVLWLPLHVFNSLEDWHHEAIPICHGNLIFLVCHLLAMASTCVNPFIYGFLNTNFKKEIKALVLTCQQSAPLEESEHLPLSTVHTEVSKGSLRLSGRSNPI
Compound,"IC50 [1, 7] [µM]",IC50 [2] [µM],"IC50 [3, 8] [µM]",IC50 [4] [µM],melting point [°C],"IC50 [5, 9] [µM]",activity at 10 µM [6] [%],IC50 [1] [µM],IC50 [3] [µM],"IC50 ([5]; rNPY5 IC50, [125I]PYY) [µM]"
"O=C(CN1CCC(n2c(=O)[nH]c3ccccc32)CC1)Nc1ccc(-c2ccccc2)cc1 [Compound 275, N-Biphenyl-4-yl-2-[4-(2-oxo-2,3-dihydro-benzoimidazol-1-yl)-piperidin-1-yl]-acetamide]",> 5,> 5,> 5,0.042,180 to 181,0.019,103,–,–,–
"CC(=O)NC1CCN(CC(=O)Nc2ccc(C3CCCCC3)cc2)C1 (stereo not shown) [Compound 290, 2-(3-Acetylamino-pyrrolidin-1-yl)-N-(4-cyclohexyl-phenyl)-acetamide]",> 5,> 5,> 5,0.038,105 to 110,0.019,101,–,–,–
"CCCc1ccc(NC(=O)CN2CCC(n3c(=O)[nH]c4ccccc43)CC2)cc1 [Compound 253, 2-[4-(2-Oxo-2,3-dihydro-benzoimidazol-1-yl)-piperidin-1-yl]-N-(4-propyl-phenyl)-acetamide]",> 5,> 5,> 5,0.063,116 to 117,0.05,99,–,–,–
"CCC(=O)C1(c2ccccc2)CCN(CC(=O)Nc2ccc(C3CCCCC3)cc2)CC1.Cl [Compound 303, N-(4-Cyclohexyl-phenyl)-2-(4-phenyl-4-propionyl-piperidin-1-yl)-acetamide; hydrochloride]",–,> 5,–,0.004,252,–,93,> 5,> 5,0.006
